A short description of series [1]: Nasal irritation and histopathology of nasal epithelium in rabbits. In kind it is in vivo, male New Zealand white rabbits. Particulars: intranasal, doses of 0.312 mg, 0.625 mg and 1.25 mg, all three groups.
Description: (§1) The study was carried out on total 24 male New Zealand white rabbits, which were segregated into four groups (G1 to G4, 6 rabbits/group). Mild anaesthesia was induced in all rabbits by inhalation of 2% isoflurane. Three groups (G1-G3) of anaesthetized rabbits were intranasally administered 250 μL of alcaftadine once-daily using the formulations of Examples 10A, 10B, and 10C. A comparator, 250 μL of olopatadine at a concentration of 0.6% w/v, was intranasally administered once-daily to a fourth group G4 of anaesthetized rabbits.
The animals were euthanized by intravenous administration of sodium thiopental injection overdose and nasal epithelium was collected. […] The remaining half of the tissues were stored in 10% neutral buffered formalin for detailed gross histopathological examination such as necrosis, inflammation or any changes during necropsy.
In series [2] the target is H1 receptors (Homo sapiens, UniProt P35367). Particulars: compared to azelastine and olapatadine; cited from earlier work.
The nature of series [3]: Pharmacokinetics after intranasal administration in rabbits. Particulars: for Tmax: male, New Zealand white, rabbit, plasma, inhaled or intranasal.
Description: The pharmacokinetic profiles of the alcaftadine test formulations 4A, 4B, and 4C as well as an olapatdine nasal formulation were each determined on 6 male New Zealand white rabbits.
as §1
Sampling details for the test and reference formulations: Approximately 0.5 mL of blood sample from each rabbit was withdrawn via marginal ear vein into pre-labelled Eppendorf tubes containing 10% EDTA as an anticoagulant. Blood samples were withdrawn at 0 min, 5 min, 10 min, 15 min, 30 min, 60 min, 120 min, 240 min, 480 min and 1440 min after administration of test and reference formulations.
Procedure for sample preparation: Collected blood samples were mixed gently and kept on crushed ice. Plasma samples were separated after centrifugation at 3500 rpm for 10 min at 4° C. Plasma separation was carried out within 30 min of sample collection and stored at −70±10° C. The animals were euthanized by intravenous administration of sodium thiopental injection overdose and nasal epithelium was collected. Half of the tissues of nasal epithelium were homogenized using phosphate buffered solution (20% homogenation) for quantification of alcaftadine and olopatidine. The remaining half of the tissues were stored in 10% neutral buffered formalin for detailed gross histopathological examination such as necrosis, inflammation or any changes during necropsy.
Rabbit plasma and nasal epithelial tissue concentrations of alcaftadine or olopatidine were determined using a fit-for-purpose LC-MS/MS method with LLOQ of 0.500 ng/mL or 0.250 ng/mL, respectively. The pharmacokinetic parameters were evaluated using Phoenix WinNonlin® Ent-Version 8.0 by non-compartmental analysis.
The target of series [4] is H2 receptors (Homo sapiens, UniProt P25021). The following applies: compared to azelastine and olapatadine; cited from earlier work.
Sequence of H2 receptors (P25021 whole entry): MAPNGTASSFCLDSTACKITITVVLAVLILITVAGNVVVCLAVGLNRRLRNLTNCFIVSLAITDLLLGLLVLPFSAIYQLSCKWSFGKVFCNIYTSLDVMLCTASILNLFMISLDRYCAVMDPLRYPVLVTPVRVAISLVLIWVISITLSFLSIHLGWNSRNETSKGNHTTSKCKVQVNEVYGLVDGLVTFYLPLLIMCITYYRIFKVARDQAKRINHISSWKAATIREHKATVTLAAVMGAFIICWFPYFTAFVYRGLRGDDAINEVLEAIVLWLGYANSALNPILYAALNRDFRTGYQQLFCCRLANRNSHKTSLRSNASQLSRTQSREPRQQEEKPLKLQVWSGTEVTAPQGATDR
The mark [5] stands for this setting: single administration, doses of 0.625 to 1.25 mg.

The source of these data is patent US20230218630A1, “COMBINATION OF ALCAFTADINE AND A CORTICOSTEROID” (priority 2020, published 2023).

Sequence of H1 receptors (P35367 whole entry): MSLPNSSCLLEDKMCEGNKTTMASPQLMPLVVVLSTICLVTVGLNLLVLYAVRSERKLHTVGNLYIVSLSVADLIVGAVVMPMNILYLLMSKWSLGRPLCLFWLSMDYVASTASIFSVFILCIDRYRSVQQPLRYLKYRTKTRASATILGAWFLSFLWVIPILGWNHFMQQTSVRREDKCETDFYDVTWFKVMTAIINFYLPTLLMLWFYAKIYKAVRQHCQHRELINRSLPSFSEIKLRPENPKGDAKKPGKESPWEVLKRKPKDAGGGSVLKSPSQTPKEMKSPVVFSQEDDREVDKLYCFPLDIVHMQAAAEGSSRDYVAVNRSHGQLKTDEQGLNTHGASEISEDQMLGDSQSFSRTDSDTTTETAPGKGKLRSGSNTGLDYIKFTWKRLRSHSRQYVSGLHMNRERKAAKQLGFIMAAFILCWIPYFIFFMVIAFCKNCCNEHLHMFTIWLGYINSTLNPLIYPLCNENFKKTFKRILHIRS

In the case of `CN1CCC(=C2c3ccccc3CCn3c(C=O)cnc32)CC1` [Alcaftadine, 6,11-dihydro-11-(1-methyl-4-piperidinylidene)-5H-imidazo[2,1-b][3]benzazepine-3-carboxaldehyde], the “signs or symptoms of inflammation or irritation” value in series [1] is listed as “no signs or symptoms of inflammation or irritation were observed”. In series [2], the “binding affinity to H1 receptors” value was “higher binding affinity”. Further, in series [3] (intranasal, rabbits), the “plasma concentration / systemic exposure” value is on record as “dose proportional with overall low systemic exposure”. The Tmax in series [3] (0.312 mg), in series [3] (0.625 mg) and in series [3] (1.25 mg) was 4.8 min throughout. Also, in series [3] (setting [5]), the “area under the curve (AUC0-24h)” value is given as “dose proportional”. Also, the “peak plasma concentrations (Cmax)” value in series [3] (setting [5]) is “dose proportional”. For the same compound, the “binding affinity to H2 receptors” value in series [4] is “higher binding affinity”.

The term Tmax denotes the time from dosing to the highest level.
